Tests used:
Assay in all cases: relative viability (nuclei count vs DMSO), 5 days (fraction); higher = more cells survive
Sorafenib + Luminespib = compound: CNC(=O)c1cc(Oc2ccc(NC(=O)Nc3ccc(Cl)c(C(F)(F)F)c3)cc2)ccn1 [Sorafenib] + CCNC(=O)c1noc(-c2cc(C(C)C)c(O)cc2O)c1-c1ccc(CN2CCOCC2)cc1 [Luminespib] (partner 0.01 µM)
Method in brief: (§1)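 Relative viability is defined as nuclei in treated wells over nuclei in vehicle wells. Duplicate plates were run and medians reported. Lung cancer cell lines in 1536-well plates were dosed by pin tool one day after seeding, with one drug or with a fixed anchor-drug dose plus five library-drug doses (not always all listed) in √10 steps, and nuclei were counted after 5 days.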

Sorafenib + Lapatinib = compound: CNC(=O)c1cc(Oc2ccc(NC(=O)Nc3ccc(Cl)c(C(F)(F)F)c3)cc2)ccn1 [Sorafenib] + CS(=O)(=O)CCNCc1ccc(-c2ccc3ncnc(Nc4ccc(OCc5cccc(F)c5)c(Cl)c4)c3c2)o1 [Lapatinib] (partner 2 µM)
Method in brief: as §1

Sorafenib + OSI-027 = compound: CNC(=O)c1cc(Oc2ccc(NC(=O)Nc3ccc(Cl)c(C(F)(F)F)c3)cc2)ccn1 [Sorafenib] + COc1cccc2cc(-c3nc([C@H]4CC[C@H](C(=O)O)CC4)n4ncnc(N)c34)[nH]c12 [OSI-027] (partner 0.5 µM)
Method in brief: as §1

Sorafenib + Bortezomib = compound: CNC(=O)c1cc(Oc2ccc(NC(=O)Nc3ccc(Cl)c(C(F)(F)F)c3)cc2)ccn1 [Sorafenib] + CC(C)C[C@H](NC(=O)[C@H](Cc1ccccc1)NC(=O)c1cnccn1)B(O)O [Bortezomib] (partner 0.002 µM)
Method in brief: as §1

Sorafenib + Alpelisib = compound: CNC(=O)c1cc(Oc2ccc(NC(=O)Nc3ccc(Cl)c(C(F)(F)F)c3)cc2)ccn1 [Sorafenib] + Cc1nc(NC(=O)N2CCC[C@H]2C(N)=O)sc1-c1ccnc(C(C)(C)C(F)(F)F)c1 [Alpelisib] (partner 2 µM)
Method in brief: as §1

Cell Line	relative viability (Sorafenib + Luminespib; first compound 0.08 µM)	relative viability (Sorafenib + Luminespib; first compound 0.253 µM)	relative viability (Sorafenib + Luminespib; first compound 2.53 µM)	relative viability (Sorafenib + Luminespib; first compound 8 µM)	relative viability (Sorafenib + Lapatinib; first compound 0.08 µM)	relative viability (Sorafenib + Lapatinib; first compound 0.253 µM)	relative viability (Sorafenib + Lapatinib; first compound 2.53 µM)	relative viability (Sorafenib + Lapatinib; first compound 8 µM)	relative viability (Sorafenib + OSI-027; first compound 0.08 µM)	relative viability (Sorafenib + OSI-027; first compound 0.253 µM)	relative viability (Sorafenib + OSI-027; first compound 2.53 µM)	relative viability (Sorafenib + OSI-027; first compound 8 µM)	relative viability (Sorafenib + Bortezomib; first compound 0.08 µM)	relative viability (Sorafenib + Bortezomib; first compound 0.253 µM)	relative viability (Sorafenib + Bortezomib; first compound 2.53 µM)	relative viability (Sorafenib + Bortezomib; first compound 8 µM)	relative viability (Sorafenib + Alpelisib; first compound 0.08 µM)	relative viability (Sorafenib + Alpelisib; first compound 0.253 µM)	relative viability (Sorafenib + Alpelisib; first compound 2.53 µM)	relative viability (Sorafenib + Alpelisib; first compound 8 µM)
NCI-H1651	0.965	0.778	0.958	0.319	0.912	0.696	0.849	0.365	0.777	0.687	0.655	0.622	0.995	0.855	0.92	0.801	0.979	0.981	0.996	0.547
NCI-H1755	0.67	0.399	0.371	0.404	1.03	0.999	0.994	0.869	0.718	0.639	0.746	0.666	0.921	0.945	0.988	0.689	0.977	0.93	0.857	0.694
PC-3 [JPC-3]	0.67	0.687	0.717	0.637	0.499	0.439	0.502	0.537	0.805	0.722	0.692	0.617	0.875	0.726	0.818	0.928	1.07	0.987	1.08	1.12
UMC-11	1.03	1.03	1	0.182	1.08	0.874	1.07	0.468	0.46	0.386	0.454	0.266	0.609	0.627	0.702	0.231	0.999	0.959	0.968	0.529
ABC-1	0.815	0.378	0.538	0.158	1.25	1.19	1.23	0.726	0.575	0.49	0.654	0.37	0.36	0.253	0.321	0.336	1.01	0.945	1.11	1.03
SW 1573	0.239	0.255	0.166	0.117	1.18	0.978	1.12	0.963	0.79	0.517	0.553	0.21	1.22	1.05	0.989	0.286	0.879	0.757	0.805	0.578
SK-LU-1	0.181	0.181	0.2	0.179	0.914	0.735	0.774	0.373	0.41	0.283	0.345	0.227	1.16	1.07	1.11	0.735	0.987	–	0.868	0.242
COR-L23	0.731	0.688	0.525	0.135	1.08	0.795	0.921	0.914	0.874	0.725	0.754	–	1.11	0.964	0.888	0.877	0.83	0.758	0.79	0.637
NCI-H1944	0.697	0.634	–	0.552	0.881	0.763	0.912	0.796	0.4	0.381	0.436	0.334	–	–	–	–	0.882	0.909	1.01	0.706
SK-MES-1	0.752	0.69	0.791	0.412	0.468	0.465	0.56	0.515	0.604	0.548	0.5	0.454	–	–	–	–	0.957	0.877	0.854	0.873
NCI-H1395	0.742	0.703	0.576	0.53	1.21	0.714	1.05	0.633	0.691	0.562	0.72	0.459	–	–	–	–	1.26	–	0.981	0.695
NCI-H1703	–	–	–	–	0.716	0.435	0.28	0.221	–	–	–	–	0.193	0.207	0.183	0.151	0.301	0.176	0.189	0.156
NCI-H2170	0.527	0.707	0.706	0.592	0.279	0.294	0.349	0.39	0.72	0.681	0.647	0.51	–	–	–	–	0.792	0.843	0.865	0.754
HCC-78	–	–	–	–	1.06	0.755	0.815	0.86	0.39	0.304	0.431	0.384	0.517	0.427	–	0.585	0.373	0.297	0.367	0.423
ChaGo-K-1	0.708	0.446	0.606	0.325	–	–	–	–	0.583	0.397	0.683	0.46	1.18	0.781	1.16	0.451	–	–	–	–
SW 900	0.147	0.16	0.171	0.165	–	–	–	–	0.842	0.427	0.579	0.49	–	–	–	–	–	–	–	–
LK-2	0.228	0.197	0.175	0.172	1.22	0.804	0.906	0.671	0.201	0.193	0.19	0.139	–	–	–	–	1.06	–	0.89	0.647
NCI-H1650	0.183	0.183	0.193	0.209	0.96	0.776	0.787	0.224	0.83	0.599	0.908	0.31	0.239	0.217	0.225	0.212	–	–	–	–
LCLC-103H	0.964	0.939	1.03	0.837	–	–	–	–	0.556	0.425	0.528	0.469	1.08	1.23	1.05	1.08	1.06	0.991	0.893	1.18
